Here are results for two compounds from patent US9765158B2, “Methods for preparation of fucose-linked site specific conjugates of proteins with toxins, adjuvants, detection labels and pharmacokinetic half life extenders” (Probiogen AG, priority 2011, dated 2017).

Assay [1] relates to Antibody expressing CHO cells carrying the RMD transgene. Put plainly: Fucose feeding experiment: rescue of core-fucosylation of secreted antibody, PSA lectin blotting. Format: cell-based, Chinese hamster. The following applies: media and feeds supplemented with 0.03 mM; cells grown 12 days; supernatant lectin blot (FIG. 4). The method, then: Currently, Fucose analogs are not routinely used in cell culture and are thus still expensive. In order to identify the most cost efficient fucose analogue concentration, we needed to determine the minimum required amount of fucose analogue that was sufficient to completely rescue the fucosylation status of heterologously expressed antibodies secreted from RMD-co-expressing cells. Antibody expressing CHO cells carrying the RMD transgene were cultured in medium containing varying concentrations of fucose and fed with a feed mix supplemented with that same amount of fucose. Cells were grown for 12 days before harvesting the cell culture supernatant. The supernatants were analysed by lectin blotting using biotinylated PSA lectin (pisum sativum) that specifically recognizes the alpha-1,6-linked core-fucose. Lectin blotting was conducted using the Vecstatin Elite ABC Kit (Vector Labs, USA) according to the manufacturers instructions.

Assay [2] deals with avidin (Gallus gallus, UniProt P02701). As to conditions: avidin-biotin complex; cited from earlier work.
avidin, sequence (P02701 25-152, species assumed): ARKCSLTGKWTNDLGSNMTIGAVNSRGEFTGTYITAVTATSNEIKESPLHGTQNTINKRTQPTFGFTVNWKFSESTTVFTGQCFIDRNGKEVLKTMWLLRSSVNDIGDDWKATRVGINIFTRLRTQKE

`C[C@H](O)[C@@H](O)[C@@H](O)[C@H](O)C=O` [Fucose]: in assay [1], the rescue of core-fucosylation entry is on record as “almost complete rescue”.

Regarding `O=C(O)CCCC[C@@H]1SC[C@@H]2NC(=O)N[C@@H]21` [biotin], the Ka in assay [2] is 1015 M⁻¹.
